{"source": "paper PMC5014220", "about": "“An α‐Helix‐Mimicking 12,13‐Helix: Designed α/β/γ‐Foldamers as Selective Inhibitors of Protein–Protein Interactions” (Angewandte Chemie (International Ed. in English), 2016)", "key": {"[1]": {"target": "T1, p53/hDM2 interaction (FITC–p53_15–31 / hDM2(17-126) L33E) (Homo sapiens, UniProt Q00987, L33E)", "T1 construct": "hDM2(17-126)", "test": "Fluorescence anisotropy (FA) competition assay against p53/hDM2", "type": "binding", "conditions": "for IC50: 50 nM FITC–p53(15-31), 150 nM hDM2(17-126) L33E, 40 mM phosphate buffer pH 7.5, 200 mM NaCl, 0.02 mg mL−1 BSA, 5 % DMSO, read after 1 h at room temperature, triplicate, fit ± error; for Displacement of FITC–p53_15–31 from hDM2 (in words): same conditions, lower asymptote of the competition curve not achieved at higher concentrations, IC50 ND"}, "[2]": {"target": "BODIPY–BAK/Bcl‐xL protein–protein interaction (Homo sapiens, UniProt Q07817)", "test": "FA competition assay, BODIPY–BAK/Bcl-xL", "type": "binding", "conditions": "50 nM BODIPY-Bak, 150 nM Bcl-xL, top concentration 222 μM, 1 h room temperature, triplicate"}, "[3]": {"target": "T2, FITC–NOXA B/Mcl‐1 protein–protein interaction (Homo sapiens, UniProt Q07820)", "T2 construct": "Mcl-1(172-327)", "test": "FA competition assay, FITC–NOXA B/Mcl-1", "type": "binding", "conditions": "50 nM FITC-NOXA B(68-87), 150 nM Mcl-1(172-327), top concentration 222 μM, 1 h room temperature, triplicate"}, "[4]": {"tested_on": "α‐chymotrypsin (α‐CT)", "test": "Proteolytic stability with α-chymotrypsin (HPLC)", "type": "in vitro ADME", "conditions": "α-chymotrypsin type II from bovine pancreas, 1:10000 enzyme/substrate; peptide 200 μM stock in PBS pH 7.50, 2% DMSO; followed by analytical HPLC; fold versus p53_15–31", "text": "The proteolytic stability of α/β/γ‐peptides 1–8 was investigated using α‐chymotrypsin (α‐CT) as a representative protease, since this enzyme selectively hydrolyses the amide bond on the C‐terminal side of hydrophobic residues such as Leu, Trp, and Phe, all of which are present in the α/β/γ‐peptide sequences. The p53_15–31 peptide was also studied for comparison (see the Supporting Information). […] For the latter four peptides, the proteolytic activity corresponded to methyl ester hydrolysis of the C‐terminal Leu residue; in all eight cases, therefore, the hexapeptide core remained largely intact for the duration of the experiments.\nIV. Proteolysis studies of peptides 1-8\nα-Chymotrypsin Type II from bovine pancreas (lyophilized powder, MW = 25 kDa, ≥ 40 units/mg protein) was purchased from Sigma-Aldrich and used without further purification.\nα/β/γ-Peptides and p53(15-31) peptide (200 µM stock in PBS buffer pH 7.50, 2% DMSO) were treated with α-Chymotrypsin Type II from bovine pancreas (0.02 µM stock solutions in PBS buffer pH 7.50) in a 1:10000 enzyme/substrate ratio. The degradation was followed with analytical HPLC (Ascentis® Express Peptide Column, injection volume: 20 µL, acetonitrile/water (0.1% TFA) 5-95% gradient) and the data was analysed to extract kinetic values.\n1. HPLC traces of the positive control (native p53) in presence of α-Chymotrypsin\n(1 picture or pasted object on this page, not shown here)"}}, "data": [{"compound": "COC(=O)[C@H](CC(C)C)NC(=O)[C@H]1CC[C@@H]1NC(=O)CC[C@H](Cc1c[nH]c2ccccc12)NC(=O)[C@H]1CC[C@@H]1NC(=O)CC[C@@H](C)NC(=O)[C@H](Cc1ccccc1)NC(=O)OC(C)(C)C", "note": "[Peptide 1]", "values": [{"measurement": "IC50", "setting": "[1]", "result": "57 ± 22", "unit": "µM"}, {"measurement": "Inhibitory activity on BODIPY–BAK/Bcl‐xL interaction", "setting": "[2]", "result": "no inhibitory activity"}, {"measurement": "Inhibitory activity on FITC–NOXA B/Mcl‐1 interaction", "setting": "[3]", "result": "no inhibitory activity"}, {"measurement": "Resistance to α‐CT relative to native p53_15–31", "setting": "[4]", "result": "≥ 10", "unit": "fold"}]}, {"compound": "COC(=O)CC[C@H](CC(C)C)NC(=O)[C@H]1CC[C@@H]1NC(=O)CC[C@H](Cc1c[nH]c2ccccc12)NC(=O)[C@H]1CC[C@@H]1NC(=O)CC[C@@H](C)NC(=O)[C@H](Cc1ccccc1)NC(=O)OC(C)(C)C", "note": "[Peptide 2]", "values": [{"measurement": "IC50", "setting": "[1]", "result": "15 ± 2", "unit": "µM"}, {"measurement": "Inhibitory activity on BODIPY–BAK/Bcl‐xL interaction", "setting": "[2]", "result": "no inhibitory activity"}, {"measurement": "Inhibitory activity on FITC–NOXA B/Mcl‐1 interaction", "setting": "[3]", "result": "no inhibitory activity"}]}, {"compound": "COC(=O)[C@H](CC(C)C)NC(=O)[C@H]1CC[C@@H]1NC(=O)CC[C@H](Cc1ccccc1)NC(=O)[C@H]1CC[C@@H]1NC(=O)CC[C@@H](C)NC(=O)[C@H](Cc1ccccc1)NC(=O)OC(C)(C)C", "note": "[Peptide 3]", "values": [{"measurement": "IC50", "setting": "[1]", "result": "> 100", "unit": "µM"}, {"measurement": "Resistance to α‐CT relative to native p53_15–31", "setting": "[4]", "result": "≥ 10", "unit": "fold"}]}, {"compound": "COC(=O)CC[C@H](CC(C)C)NC(=O)[C@H]1CC[C@@H]1NC(=O)CC[C@H](Cc1ccccc1)NC(=O)[C@H]1CC[C@@H]1NC(=O)CC[C@@H](C)NC(=O)[C@H](Cc1ccccc1)NC(=O)OC(C)(C)C", "note": "[Peptide 4]", "values": [{"measurement": "IC50", "setting": "[1]", "result": "> 100", "unit": "µM"}, {"measurement": "Resistance to α‐CT relative to native p53_15–31", "setting": "[4]", "result": "≥ 32", "unit": "fold"}]}, {"compound": "COC(=O)[C@H](CC(C)C)NC(=O)[C@H]1CC[C@@H]1NC(=O)CC[C@H](Cc1c[nH]c2ccccc12)NC(=O)[C@H]1CC[C@@H]1NC(=O)CC[C@@H](C)NC(=O)[C@H](Cc1ccccc1)NC(C)=O", "note": "[Peptide 5]", "values": [{"measurement": "IC50", "setting": "[1]", "result": "> 100", "unit": "µM"}, {"measurement": "Resistance to α‐CT relative to native p53_15–31", "setting": "[4]", "result": "≥ 10", "unit": "fold"}]}, {"compound": "COC(=O)CC[C@H](CC(C)C)NC(=O)[C@H]1CC[C@@H]1NC(=O)CC[C@H](Cc1c[nH]c2ccccc12)NC(=O)[C@H]1CC[C@@H]1NC(=O)CC[C@@H](C)NC(=O)[C@H](Cc1ccccc1)NC(C)=O", "note": "[Peptide 6]", "values": [{"measurement": "Displacement of FITC–p53_15–31 from hDM2 (in words)", "setting": "[1]", "result": "effectively displaced FITC–p53_15–31 at micromolar concentrations"}, {"measurement": "Resistance to α‐CT relative to native p53_15–31", "setting": "[4]", "result": "≥ 32", "unit": "fold"}]}, {"compound": "COC(=O)[C@H](CC(C)C)NC(=O)[C@H]1CC[C@@H]1NC(=O)CC[C@H](Cc1ccccc1)NC(=O)[C@H]1CC[C@@H]1NC(=O)CC[C@@H](C)NC(=O)[C@H](Cc1ccccc1)NC(C)=O", "note": "[Peptide 7]", "values": [{"measurement": "IC50", "setting": "[1]", "result": "> 100", "unit": "µM"}, {"measurement": "Resistance to α‐CT relative to native p53_15–31", "setting": "[4]", "result": "≥ 10", "unit": "fold"}]}, {"compound": "COC(=O)CC[C@H](CC(C)C)NC(=O)[C@H]1CC[C@@H]1NC(=O)CC[C@H](Cc1ccccc1)NC(=O)[C@H]1CC[C@@H]1NC(=O)CC[C@@H](C)NC(=O)[C@H](Cc1ccccc1)NC(C)=O", "note": "[Peptide 8]", "values": [{"measurement": "Displacement of FITC–p53_15–31 from hDM2 (in words)", "setting": "[1]", "result": "effectively displaced FITC–p53_15–31 at micromolar concentrations"}]}]}
